Laboratory results published in paper PMC4051630, “A Comparison of Protein Kinases Inhibitor Screening Methods Using Both Enzymatic Activity and Binding Affinity Determination” (PLoS ONE, 2014).

Columns and labels:
Experiment in all cases: Differential Scanning Fluorimetry (DSF) Tm shift
Assay type in all cases: binding
[1] = target: T1, PAK4 Catalytic Domain+PBD (Homo sapiens, UniProt O96013); details: 2 µM protein, 10 µM inhibitor, average of 3 experiments, each in duplicate
T1 construct: for 8, we also made a longer version containing one or more additional domains; His-tag; made in house; host or cells: Escherichia coli
T1 sequence (O96013 whole entry, the tested form may be a part): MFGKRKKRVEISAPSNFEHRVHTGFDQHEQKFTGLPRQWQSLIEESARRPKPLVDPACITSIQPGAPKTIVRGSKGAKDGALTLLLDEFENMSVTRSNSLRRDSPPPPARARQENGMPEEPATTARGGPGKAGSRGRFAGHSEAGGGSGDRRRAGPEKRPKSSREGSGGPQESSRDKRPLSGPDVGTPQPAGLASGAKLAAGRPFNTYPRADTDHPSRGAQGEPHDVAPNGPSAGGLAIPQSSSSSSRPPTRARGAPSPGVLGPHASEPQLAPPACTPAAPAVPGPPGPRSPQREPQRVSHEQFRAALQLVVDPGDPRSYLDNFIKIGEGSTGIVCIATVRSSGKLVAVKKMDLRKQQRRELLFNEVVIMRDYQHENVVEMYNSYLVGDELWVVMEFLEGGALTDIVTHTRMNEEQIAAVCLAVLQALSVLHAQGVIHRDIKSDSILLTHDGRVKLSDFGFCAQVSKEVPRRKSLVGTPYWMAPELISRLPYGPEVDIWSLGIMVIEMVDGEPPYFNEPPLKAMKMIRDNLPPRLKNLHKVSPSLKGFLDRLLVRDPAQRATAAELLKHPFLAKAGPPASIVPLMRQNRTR

[2] = target: SRC Catalytic Domain (Homo sapiens, UniProt P12931); set-up: For all of them, we expressed and purified the catalytic domain separately; His-tag; made in house; host or cells: Escherichia coli; details: 2 µM protein, 10 µM inhibitor, average of 3 experiments, each in duplicate
[3] = target: T2, FES Catalytic Domain (Homo sapiens, UniProt P07332); details: 2 µM protein, 10 µM inhibitor, average of 3 experiments, each in duplicate
T2 construct: For all of them, we expressed and purified the catalytic domain separately; His-tag; made in house; host or cells: Escherichia coli
T2 sequence (P07332 561-822 limits assumed): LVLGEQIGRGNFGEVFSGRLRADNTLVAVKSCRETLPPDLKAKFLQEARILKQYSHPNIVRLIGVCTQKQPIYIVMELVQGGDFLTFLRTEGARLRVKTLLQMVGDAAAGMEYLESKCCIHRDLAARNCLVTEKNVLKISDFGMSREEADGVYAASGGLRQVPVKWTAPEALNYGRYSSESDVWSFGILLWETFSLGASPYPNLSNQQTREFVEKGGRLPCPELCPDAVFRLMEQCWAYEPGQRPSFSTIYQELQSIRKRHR

[4] = target: SRC Catalytic Domain+SH2+SH3 (Homo sapiens, UniProt P12931); details: 2 µM protein, 10 µM inhibitor, average of 3 experiments, each in duplicate
[5] = target: T3, PAK4 Catalytic Domain (Homo sapiens, UniProt O96013); details: 2 µM protein, 10 µM inhibitor, average of 3 experiments, each in duplicate
T3 construct: For all of them, we expressed and purified the catalytic domain separately; His-tag; made in house; host or cells: Escherichia coli
T3 sequence (O96013 321-572 limits assumed): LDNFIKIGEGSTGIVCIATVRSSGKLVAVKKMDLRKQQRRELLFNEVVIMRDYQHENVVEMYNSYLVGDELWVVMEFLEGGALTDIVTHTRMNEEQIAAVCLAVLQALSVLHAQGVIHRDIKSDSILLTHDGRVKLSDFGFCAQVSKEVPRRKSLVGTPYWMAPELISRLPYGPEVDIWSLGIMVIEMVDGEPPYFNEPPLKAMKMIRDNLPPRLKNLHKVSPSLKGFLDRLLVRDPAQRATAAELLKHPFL

[6] = target: T4, CDK2 + Cyclin A (Homo sapiens, UniProt P24941); details: CDK2 + Cyclin A; 2 µM protein, 10 µM inhibitor; average of 3 experiments, each in duplicate
T4 construct: CDK2 (P24941); 1–299; His-tag; made in house; host or cells: Escherichia coli

[7] = target: T5, CDK2 + Cyclin E (Homo sapiens, UniProt P24941); details: CDK2 + Cyclin E; 2 µM protein, 10 µM inhibitor; average of 3 experiments, each in duplicate
T5 construct: CDK2 (P24941); 1–299; His-tag; made in house; host or cells: Escherichia coli

[8] = target: T6, PAK7 Catalytic Domain (Homo sapiens, UniProt Q9P286); details: 2 µM protein, 10 µM inhibitor, average of 3 experiments, each in duplicate
T6 construct: For all of them, we expressed and purified the catalytic domain separately; His-tag; made in house; host or cells: Escherichia coli
T6 sequence (Q9P286 449-700 limits assumed): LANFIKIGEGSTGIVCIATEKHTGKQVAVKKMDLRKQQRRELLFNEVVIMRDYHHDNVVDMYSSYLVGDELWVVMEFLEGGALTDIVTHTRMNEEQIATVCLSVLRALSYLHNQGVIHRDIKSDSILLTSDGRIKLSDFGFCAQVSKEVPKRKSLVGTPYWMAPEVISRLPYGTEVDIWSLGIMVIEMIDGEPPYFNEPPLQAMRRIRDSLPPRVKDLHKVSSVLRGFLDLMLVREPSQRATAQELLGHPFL

[9] = target: T7, FES Catalytic Domain+SH2 (Homo sapiens, UniProt P07332); details: 2 µM protein, 10 µM inhibitor, average of 3 experiments, each in duplicate
T7 construct: for 8, we also made a longer version containing one or more additional domains; His-tag; made in house; host or cells: Escherichia coli
T7 sequence (P07332 448-822 limits assumed): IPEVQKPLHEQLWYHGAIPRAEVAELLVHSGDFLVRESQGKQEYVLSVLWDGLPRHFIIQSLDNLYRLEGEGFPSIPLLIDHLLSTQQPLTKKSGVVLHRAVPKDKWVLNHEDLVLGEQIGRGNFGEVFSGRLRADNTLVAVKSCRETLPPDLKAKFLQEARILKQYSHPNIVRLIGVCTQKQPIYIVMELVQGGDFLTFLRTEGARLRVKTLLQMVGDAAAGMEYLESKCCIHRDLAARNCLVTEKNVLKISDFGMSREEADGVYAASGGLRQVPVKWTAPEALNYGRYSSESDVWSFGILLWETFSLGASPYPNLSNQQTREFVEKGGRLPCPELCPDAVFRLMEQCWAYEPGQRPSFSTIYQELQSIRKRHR

[10] = target: T8, AKT3 Catalytic Domain (Homo sapiens, UniProt Q9Y243); details: 2 µM protein, 10 µM inhibitor, average of 3 experiments, each in duplicate
T8 construct: AKT3 (Q9Y243); CD; His-tag; made in house; host or cells: Escherichia coli
T8 sequence (Q9Y243 122-479): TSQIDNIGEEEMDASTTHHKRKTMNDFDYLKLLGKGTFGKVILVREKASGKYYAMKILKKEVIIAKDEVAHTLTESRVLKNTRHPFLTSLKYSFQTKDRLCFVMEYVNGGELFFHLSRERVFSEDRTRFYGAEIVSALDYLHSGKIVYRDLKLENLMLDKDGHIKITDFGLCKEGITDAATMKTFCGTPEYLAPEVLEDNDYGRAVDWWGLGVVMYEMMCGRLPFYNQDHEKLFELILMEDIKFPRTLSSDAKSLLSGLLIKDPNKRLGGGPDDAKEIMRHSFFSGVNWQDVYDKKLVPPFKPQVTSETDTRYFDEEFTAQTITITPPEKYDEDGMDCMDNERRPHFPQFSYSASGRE

[11] = target: T9, STK3 Catalytic domain+SARAH (Homo sapiens, UniProt Q13188); details: 2 µM protein, 10 µM inhibitor, average of 3 experiments, each in duplicate
T9 construct: for 8, we also made a longer version containing one or more additional domains; His-tag; made in house; host or cells: Escherichia coli
T9 sequence (Q13188 1-491): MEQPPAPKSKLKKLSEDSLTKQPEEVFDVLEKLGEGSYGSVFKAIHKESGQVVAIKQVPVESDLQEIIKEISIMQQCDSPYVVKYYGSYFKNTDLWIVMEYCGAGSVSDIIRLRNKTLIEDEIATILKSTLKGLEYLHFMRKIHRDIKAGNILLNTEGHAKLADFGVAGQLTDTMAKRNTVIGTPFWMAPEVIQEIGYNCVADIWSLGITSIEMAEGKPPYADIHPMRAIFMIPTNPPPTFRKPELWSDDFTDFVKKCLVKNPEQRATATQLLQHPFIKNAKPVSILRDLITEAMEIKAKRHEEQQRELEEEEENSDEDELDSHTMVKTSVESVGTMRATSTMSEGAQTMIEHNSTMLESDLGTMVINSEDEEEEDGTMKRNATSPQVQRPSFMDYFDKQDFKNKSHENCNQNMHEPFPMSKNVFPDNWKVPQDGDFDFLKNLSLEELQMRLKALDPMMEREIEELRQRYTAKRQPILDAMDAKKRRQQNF

[12] = target: T10, DMPK Catalytic Domain (Homo sapiens, UniProt Q09013); details: 2 µM protein, 10 µM inhibitor, average of 3 experiments, each in duplicate
T10 construct: For all of them, we expressed and purified the catalytic domain separately; His-tag; made in house; host or cells: Escherichia coli
T10 sequence (Q09013 71-339 limits assumed): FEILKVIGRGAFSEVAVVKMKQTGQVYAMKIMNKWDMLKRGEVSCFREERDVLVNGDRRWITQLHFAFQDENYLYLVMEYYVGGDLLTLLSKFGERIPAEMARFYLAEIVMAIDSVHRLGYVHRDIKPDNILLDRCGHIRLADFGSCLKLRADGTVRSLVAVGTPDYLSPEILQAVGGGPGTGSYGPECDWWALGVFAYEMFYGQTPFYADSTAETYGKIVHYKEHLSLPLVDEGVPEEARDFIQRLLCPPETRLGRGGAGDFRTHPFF

[13] = target: T11, STK3 Catalytic Domain (Homo sapiens, UniProt Q13188); details: 2 µM protein, 10 µM inhibitor, average of 3 experiments, each in duplicate
T11 construct: For all of them, we expressed and purified the catalytic domain separately; His-tag; made in house; host or cells: Escherichia coli
T11 sequence (Q13188 27-278 limits assumed): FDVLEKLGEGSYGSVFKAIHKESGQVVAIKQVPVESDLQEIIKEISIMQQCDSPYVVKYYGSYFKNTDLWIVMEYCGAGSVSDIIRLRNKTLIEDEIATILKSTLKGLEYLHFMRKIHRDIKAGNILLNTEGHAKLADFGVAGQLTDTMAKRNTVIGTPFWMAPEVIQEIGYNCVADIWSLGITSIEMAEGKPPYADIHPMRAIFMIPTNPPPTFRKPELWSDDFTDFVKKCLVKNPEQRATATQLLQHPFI

[14] = target: T12, CHK2 Catalytic Domain (Homo sapiens, UniProt O96017); details: 2 µM protein, 10 µM inhibitor, average of 3 experiments, each in duplicate
T12 construct: For all of them, we expressed and purified the catalytic domain separately; His-tag; made in house; host or cells: Escherichia coli
T12 sequence (O96017 220-486 limits assumed): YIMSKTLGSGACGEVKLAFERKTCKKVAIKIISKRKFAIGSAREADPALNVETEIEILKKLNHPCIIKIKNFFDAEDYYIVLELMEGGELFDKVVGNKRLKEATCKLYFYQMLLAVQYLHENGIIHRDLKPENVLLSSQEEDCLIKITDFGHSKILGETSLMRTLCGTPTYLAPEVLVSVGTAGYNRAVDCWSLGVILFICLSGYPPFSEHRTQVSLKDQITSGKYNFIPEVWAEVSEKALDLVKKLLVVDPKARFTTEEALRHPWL

[15] = target: T13, FAK2 Catalytic Domain (Homo sapiens, UniProt Q14289); details: 2 µM protein, 10 µM inhibitor, average of 3 experiments, each in duplicate
T13 construct: For all of them, we expressed and purified the catalytic domain separately; His-tag; made in house; host or cells: Escherichia coli
T13 sequence (Q14289 425-683 limits assumed): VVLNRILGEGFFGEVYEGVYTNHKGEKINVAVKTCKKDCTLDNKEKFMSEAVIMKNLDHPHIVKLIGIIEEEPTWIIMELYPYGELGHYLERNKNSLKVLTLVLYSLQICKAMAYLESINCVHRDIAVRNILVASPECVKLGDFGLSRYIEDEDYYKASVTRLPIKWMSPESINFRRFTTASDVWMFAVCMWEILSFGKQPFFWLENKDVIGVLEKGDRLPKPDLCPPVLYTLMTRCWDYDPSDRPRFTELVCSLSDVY

Row | Molecule | Melting temperature (Tm) shift [1] | Melting temperature (Tm) shift [2] | Melting temperature (Tm) shift [3] | Melting temperature (Tm) shift [4] | Melting temperature (Tm) shift [5] | Melting temperature (Tm) shift [6] | Melting temperature (Tm) shift [7] | Melting temperature (Tm) shift [8] | Melting temperature (Tm) shift [9] | Melting temperature (Tm) shift [10] | Melting temperature (Tm) shift [11] | Melting temperature (Tm) shift [12] | Melting temperature (Tm) shift [13] | Melting temperature (Tm) shift [14] | Melting temperature (Tm) shift [15]
1 | O=C(c1cc2cc(O)ccc2[nH]1)c1cc2cc(O)ccc2[nH]1 [Flt-3 Inhibitor II] | 0.9 degrees Celcius | 1.3 degrees Celcius | 1.0 degrees Celcius | 1.3 degrees Celcius | 0.9 degrees Celcius | 0.9 degrees Celcius | 0.2 degrees Celcius | 0.6 degrees Celcius | 0.0 degrees Celcius | 0.1 degrees Celcius | 2.3 degrees Celcius |  | 2.3 degrees Celcius | 2.2 degrees Celcius | 0.4 degrees Celcius
2 | O=C1Nc2ccccc2C1=C1Nc2ccccc2C1=NOCCC(O)CO (stereo not shown) [Indirubin Derivative E804] | 2.1 degrees Celcius | 3.1 degrees Celcius | 1.1 degrees Celcius | 2.8 degrees Celcius | 1.9 degrees Celcius |  | 1.1 degrees Celcius | 1.7 degrees Celcius | 1.0 degrees Celcius | 0.7 degrees Celcius | 3.5 degrees Celcius | 0.6 degrees Celcius | 5.2 degrees Celcius | 2.2 degrees Celcius | 2.8 degrees Celcius
3 | Cc1cc(C=C2C(=O)C=CC2=O)cc(C)c1O [TX-1918] | 1.1 degrees Celcius | 0.0 degrees Celcius |  |  |  | 0.4 degrees Celcius | 0.4 degrees Celcius |  |  | 4.5 degrees Celcius |  |  | 0.1 degrees Celcius | 2.6 degrees Celcius | 0.5 degrees Celcius
4 | CCCCn1c2ccc(O)cc2c2c3c(c(-c4ccccc4Cl)cc21)C(=O)NC3=O [Wee1 Inhibitor II] | 1.0 degrees Celcius | 0.3 degrees Celcius | 0.0 degrees Celcius | 0.2 degrees Celcius | 0.5 degrees Celcius | 0.1 degrees Celcius | 0.8 degrees Celcius | 0.3 degrees Celcius | 0.2 degrees Celcius | 0.1 degrees Celcius | 1.2 degrees Celcius | 0.6 degrees Celcius |  | 0.1 degrees Celcius | 0.9 degrees Celcius
5 | Scytonemin [Scytonemin, Lyngbya sp.] | 0.7 degrees Celcius | 0.0 degrees Celcius |  | 0.3 degrees Celcius | 0.6 degrees Celcius | 0.3 degrees Celcius | 0.8 degrees Celcius | 0.0 degrees Celcius | 0.2 degrees Celcius | 0.0 degrees Celcius | 0.4 degrees Celcius | 0.3 degrees Celcius | 0.5 degrees Celcius |  | 0.2 degrees Celcius

Other lines, results leading:

Row | Melting temperature (Tm) shift [1] | Melting temperature (Tm) shift [2] | Melting temperature (Tm) shift [3] | Melting temperature (Tm) shift [4] | Melting temperature (Tm) shift [5] | Melting temperature (Tm) shift [6] | Melting temperature (Tm) shift [7] | Melting temperature (Tm) shift [8] | Melting temperature (Tm) shift [9] | Melting temperature (Tm) shift [10] | Melting temperature (Tm) shift [11] | Melting temperature (Tm) shift [12] | Melting temperature (Tm) shift [13] | Melting temperature (Tm) shift [14] | Melting temperature (Tm) shift [15] | Molecule
6 | 0.0 degrees Celcius | 1.4 degrees Celcius | 0.0 degrees Celcius | 0.8 degrees Celcius | 0.3 degrees Celcius | 0.0 degrees Celcius | 0.1 degrees Celcius | 0.0 degrees Celcius | 0.1 degrees Celcius | 0.1 degrees Celcius | 0.2 degrees Celcius | 0.3 degrees Celcius | 0.2 degrees Celcius | 11.2 degrees Celcius |  | COc1cc2ncnc(Nc3ccc(OCc4ccccc4)cc3)c2cc1OC [EGFR/ErbB-2 Inhibitor]
7 |  | 0.2 degrees Celcius | 0.9 degrees Celcius |  | 0.0 degrees Celcius | 0.4 degrees Celcius | 0.1 degrees Celcius | 0.1 degrees Celcius | 0.7 degrees Celcius | 0.0 degrees Celcius | 0.7 degrees Celcius | 1.9 degrees Celcius | 0.2 degrees Celcius | 5.6 degrees Celcius |  | COc1ccc2c(c1)c(C1=C(c3c[nH]c4ccccc34)C(=O)NC1=O)cn2CCCN(C)C [Gö 6983]
8 | 7.3 degrees Celcius | 3.0 degrees Celcius | 5.5 degrees Celcius | 1.8 degrees Celcius | 5.5 degrees Celcius | 4.3 degrees Celcius | 2.3 degrees Celcius | 0.0 degrees Celcius | 3.4 degrees Celcius | 0.0 degrees Celcius | 4.3 degrees Celcius | 3.2 degrees Celcius | 3.6 degrees Celcius | 8.3 degrees Celcius |  | COc1cc(Nc2ncc3ccn(-c4cccc(CCC#N)c4)c3n2)cc(OC)c1OC [Keratinocyte Differentiation Inducer]
